Source: US6569864B1, “Pharmaceutical agents containing acyclovir, fusaric acid and derivatives thereof” (Novactyl, Inc., priority 2001, dated 2003)
≈ marks a conversion by molar mass, not a printed value. Read-outs that look alike come from different tables or passages of the source.

Legend:
HSV-1 = assay: plaque reduction assay, HSV-1 in Vero cells; assay type: cell-based; settings: for cell death observed under microscope: HSV-1 infected Vero cells
Method: (§1) Herpes simplex virus standard strains G (HSV-2) and F (HSV-1) were used in each Example. Virus input for a 6-well plate was 200 pfu/well. HSV susceptible cell line, Vero cells, were used in the virus yield reduction assay. The culture medium for Vero cells is 5% Minimum Essential Medium GIBCO/BRL (MEM) supplemented with 5% fetal bovine serum (200 U/ml penicillin and 200 μg/ml streptomycin).
(§2) To examine the efficacy of fusaric acid on HSV-1 and HSV-2, the susceptible cells were infected with either HSV-1 or HSV-2, then incubated with fusaric acid at concentrations of 0, 1, 10, 30, 60, and 100 μg/ml. The antiviral effect was then determined by plaque reduction assay.
(§3) Confluent cells were washed with PBS and infected with either HSV-1 or HSV-2 (200 pfu/well) for 1 hour at 37° C. The cells were tilled every 20 minutes. After viral inoculum was removed, infected cells were washed with PBS and overlaid with 0.5% methylcellulose in culture medium (equal volume of 1% methylcellulose mixed with 2 times culture medium) containing different doses of testing compounds. The cells were incubated at 37° C. for 2 days for HSV-2 infection and 3 days for HSV-1.
(§4) After plaque size was adequate, the cells were fixed with 20% formalin for 20 minutes and stained with 0.5% crystal violet for 20 minutes. The dye was removed by washing with tap water and left to dry in a fume hood. The plaques were then counted. The experiment was repeated.
(§5) Mean plaque counts in test wells were compared with mean plaque counts in wells not containing the compound (control wells). The antiviral effects of fusaric acid on HSV-1 and HSV-2 are summarized in Table 1 and the antiviral effect of fusaric acid on HSV as determined by plaque reduction assay is shown in FIG. 1.
(§6) EC90-100 (effective concentration giving 90-100% plaque reduction) was approximately 30 μg/ml for both HSV-1 and HSV-2. Control was calculated as the mean plaque count in the drug treated wells divided by the mean plaque count in the control wells. The concentrations giving a 50% reduction in the plaque count of the inoculum (EC50) was then calculated using computer software.
(§7) To examine the efficacy of the combination of fusaric acid and acyclovir on HSV-1 and HSV-2, the plaque reduction assay technique described in Example 1 was employed. The susceptible cells were infected with HSV-1 then incubated with a combination of fusaric acid at concentrations of 0, 1, 10, 30 and 60 μg/ml and […] acyclovir. Similarly, other susceptible cells were infected with HSV-2 then incubated with a combination of […] at concentrations of 0, 1, 10, 30, and 60 μg/ml and 6.1 μM acyclovir. A control was used in each instance, which comprised neither picolinic acid nor acyclovir.

HSV-2 = assay: plaque reduction assay, HSV-2 in Vero cells; assay type: cell-based; settings: for cell death observed under microscope: HSV-2 infected Vero cells
Method: as §1, §2, §3, §4, §5, §6, §7

herpes labialis = settings: cited from earlier work
[1] = cytotoxicity by neutral red dye uptake assay; assay type: cell-based; settings: African green monkey
Method: (§8) The cytotoxic effects of picolinic acid and fusaric acid were examined on Vero cells using neutral red dye uptake assay. Confluent Vero cells were cultured in a medium containing various doses of picolinic acid for two days. The testing concentrations were 0, 10, 100, 250, 500 and 1000 μg/ml for picolinic acid and 0, 1, 10, 50, 100 and 500 μg/ml for fusaric acid. Culture medium was removed from confluent Vero cells in a 96-well plate by pump. The cells were then washed once with 200 μl of PBS. 200 μl culture medium containing varying concentrations of either picolinic acid or fusaric acid was added to each well. The cells were then incubated with […] at 37° C. for two days. At the end of incubation, the medium was removed and the cells washed with PBS. 200 μl of 0.01% neutral red in PBS was subsequently added to each well and incubated at 37° C. for 30 minutes The dye was then removed and the cells washed twice with 200 μl PBS per well. The dye was extracted by addition of 200 μl of 50% ethanol/1% glacial acetic acid in PBS to each well and incubated at room temperature for 15 minutes with gentle shaking at 120-150 rpm. The absorbance at 550 nm was read on an enzyme-linked immunosorbent assay (ELISA) reader. The toxicity profiles of picolinic acid and fusaric acid on Vero cells analyzed from optical absorbance readings are shown in Table 2.

Vero cells = assay: cytotoxicity by neutral red dye uptake assay; assay type: cell-based
Method: as §8

Nc1nc2c(ncn2COCCO)c(=O)[nH]1 [Acyclovir, 2-amino-1,9-dihydro-9-[(2-hydroxyethoxy)metyl]-6H-purin-6-one]
HSV-1 (% of control) (HSV-1; acyclovir 1.75 μM, fusaric acid 0 μg/ml): 62.9 % of control | HSV-2 (% of control) (HSV-2; acyclovir 6.1 μM, fusaric acid 0 μg/ml): 42.9 % of control | efficacy against herpes labialis and herpes genitalis (in words) (herpes labialis; topical formulation): not effective

CCCCc1ccc(C(=O)O)nc1 [Fusaric acid]
effect on HSV-1 (in words) (HSV-1; 10 μg/ml fusaric acid alone): no effect | EC90 (HSV-1; Human alphaherpesvirus 1, Vero, read-out: EC90-100 (effective concentration giving 90-100% plaque reduction)): ~30 µg/mL | HSV-1 plaque count (% of control) (HSV-1; fusaric acid 1 μg/ml): 101 % of control | HSV-1 plaque count (% of control) (HSV-1; fusaric acid 10 μg/ml): 105 % of control | HSV-1 plaque count (% of control) (HSV-1; fusaric acid 30 μg/ml): 0 % of control | HSV-1 plaque count (% of control) (HSV-1; fusaric acid 60 μg/ml): 0 % of control | cell death observed under microscope (HSV-1; fusaric acid 60 μg/ml): + (˜20% cell death observed under microscope) | HSV-1 plaque count (% of control) (HSV-1; fusaric acid 100 μg/ml): 0 % of control | cell death observed under microscope (HSV-1; fusaric acid 100 μg/ml): ++ (˜50% cell death observed under microscope) | effect on HSV-2 (in words) (HSV-2; 10 μg/ml fusaric acid alone): no effect | EC90 (HSV-2; Human alphaherpesvirus 2, Vero, read-out: EC90-100 (effective concentration giving 90-100% plaque reduction)): ~30 µg/mL | HSV-2 plaque count (% of control) (HSV-2; fusaric acid 1 μg/ml): 103 % of control | HSV-2 plaque count (% of control) (HSV-2; fusaric acid 10 μg/ml): 101 % of control | HSV-2 plaque count (% of control) (HSV-2; fusaric acid 30 μg/ml): 0 % of control | HSV-2 plaque count (% of control) (HSV-2; fusaric acid 60 μg/ml): 0 % of control | cell death observed under microscope (HSV-2; fusaric acid 60 μg/ml): + (˜20% cell death observed under microscope) | HSV-2 plaque count (% of control) (HSV-2; fusaric acid 100 μg/ml): 0 % of control | cell death observed under microscope (HSV-2; fusaric acid 100 μg/ml): ++ (˜50% cell death observed under microscope) | CC50 at 2 days ([1]; Vero cells, read-out: cytotoxic concentration giving 50% of cell death (CC50)): ~100 µg/mL (≈ 0.558 mM) | Toxicity (% of control) (Vero cells; 1 μg/ml, Vero cells, two days): 101 % of control | Toxicity (% of control) (Vero cells; 10 μg/ml, Vero cells, two days): 76 % of control | Toxicity (% of control) (Vero cells; 50 μg/ml, Vero cells, two days): 55 % of control | Toxicity (% of control) (Vero cells; 100 μg/ml, Vero cells, two days): 49 % of control | Toxicity (% of control) (Vero cells; 500 μg/ml, Vero cells, two days): 16 % of control

O=C(O)c1ccccn1 [Picolinic acid, reference compound]
CC50 at 2 days [1]: ~800 µg/mL (≈ 6.5 mM) | Toxicity (% of control) (Vero cells; African green monkey, 2 days, 10 μg/ml): 105 % of control | Toxicity (% of control) (Vero cells; African green monkey, 2 days, 100 μg/ml): 95 % of control | Toxicity (% of control) (Vero cells; African green monkey, 2 days, 250 μg/ml): 70 % of control | Toxicity (% of control) (Vero cells; African green monkey, 2 days, 500 μg/ml): 57 % of control | Toxicity (% of control) (Vero cells; African green monkey, 2 days, 1000 μg/ml): 45 % of control

Nc1nc2c(ncn2CCC(CO)CO)c(=O)[nH]1 [denavir]
reduction of the median duration of the illness (herpes labialis; herpes labialis, typically lasting about 6 to 7 days): 6 h
